Test results as given in ChEMBL document CHEMBL5291721, “A preclinical secondary pharmacology resource illuminates target-adverse drug reaction associations of marketed drugs” (Nat Commun, 2023).

Key:
Melanocortin receptor 3 = Melanocortin receptor 3 (Homo sapiens, UniProt P41968)
Adenosine receptor A2a = Adenosine receptor A2a (Homo sapiens, UniProt P29274)
[1] = target: T1, Amine oxidase [flavin-containing] A (Homo sapiens, UniProt P21397); type: functional
T1 sequence (P21397 whole entry): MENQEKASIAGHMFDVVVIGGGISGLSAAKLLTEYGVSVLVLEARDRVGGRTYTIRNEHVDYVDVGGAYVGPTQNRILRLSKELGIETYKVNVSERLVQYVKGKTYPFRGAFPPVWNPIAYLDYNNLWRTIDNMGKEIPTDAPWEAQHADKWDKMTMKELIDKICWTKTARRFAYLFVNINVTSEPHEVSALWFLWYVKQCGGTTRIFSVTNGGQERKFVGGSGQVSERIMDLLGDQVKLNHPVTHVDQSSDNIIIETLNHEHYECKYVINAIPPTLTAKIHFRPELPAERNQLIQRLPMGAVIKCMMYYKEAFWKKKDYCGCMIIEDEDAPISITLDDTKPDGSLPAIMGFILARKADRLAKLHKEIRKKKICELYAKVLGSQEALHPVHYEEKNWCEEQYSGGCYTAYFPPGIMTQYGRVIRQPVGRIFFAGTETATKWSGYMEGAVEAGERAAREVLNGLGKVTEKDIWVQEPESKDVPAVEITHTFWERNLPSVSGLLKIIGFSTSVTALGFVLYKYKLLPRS

Histamine H2 receptor = Histamine H2 receptor (Homo sapiens, UniProt P25021); type: functional, cell-based
Cannabinoid receptor 1 = Cannabinoid receptor 1 (Homo sapiens, UniProt P21554); type: functional, cell-based
[2] = target: Delta-type opioid receptor (Homo sapiens, UniProt P41143)
[3] = target: Gamma-aminobutyric acid receptor subunit alpha-1 (Rattus norvegicus, UniProt P62813)
D(3) dopamine receptor = D(3) dopamine receptor (Homo sapiens, UniProt P35462)
[4] = target: T2, Muscarinic acetylcholine receptor M2 (Homo sapiens, UniProt P08172); type: functional, cell-based
T2 sequence (P08172 whole entry): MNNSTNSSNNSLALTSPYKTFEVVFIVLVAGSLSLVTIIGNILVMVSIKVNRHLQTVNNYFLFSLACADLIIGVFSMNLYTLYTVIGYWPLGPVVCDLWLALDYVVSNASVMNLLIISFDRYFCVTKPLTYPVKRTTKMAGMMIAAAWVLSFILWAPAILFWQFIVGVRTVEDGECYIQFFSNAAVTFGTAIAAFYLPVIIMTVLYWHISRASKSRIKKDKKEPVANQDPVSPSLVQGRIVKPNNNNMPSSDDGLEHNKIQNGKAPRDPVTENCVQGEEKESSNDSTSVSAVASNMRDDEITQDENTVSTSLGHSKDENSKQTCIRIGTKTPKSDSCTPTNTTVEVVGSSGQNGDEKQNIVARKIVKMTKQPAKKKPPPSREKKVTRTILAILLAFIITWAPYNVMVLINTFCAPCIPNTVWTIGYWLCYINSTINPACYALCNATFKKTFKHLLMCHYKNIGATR

[5] = target: Neuronal acetylcholine receptor subunit alpha-4 (Homo sapiens, UniProt P43681)
[6] = target: T3, Neuropeptide Y receptor type 1 (Homo sapiens, UniProt P25929)
T3 sequence (P25929 whole entry): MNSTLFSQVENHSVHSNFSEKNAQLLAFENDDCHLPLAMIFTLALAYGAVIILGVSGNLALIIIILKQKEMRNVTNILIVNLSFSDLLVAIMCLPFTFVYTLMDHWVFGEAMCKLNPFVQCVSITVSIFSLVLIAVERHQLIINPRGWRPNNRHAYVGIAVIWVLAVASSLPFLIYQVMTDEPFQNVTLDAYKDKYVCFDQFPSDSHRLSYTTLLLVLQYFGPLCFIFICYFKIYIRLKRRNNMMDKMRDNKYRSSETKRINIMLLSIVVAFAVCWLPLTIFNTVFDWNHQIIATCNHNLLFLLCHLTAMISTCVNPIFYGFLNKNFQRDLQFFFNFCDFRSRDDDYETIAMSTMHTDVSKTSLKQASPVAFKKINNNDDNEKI

[7] = target: T4, Alpha-2C adrenergic receptor (Homo sapiens, UniProt P18825); type: functional
T4 sequence (P18825 whole entry): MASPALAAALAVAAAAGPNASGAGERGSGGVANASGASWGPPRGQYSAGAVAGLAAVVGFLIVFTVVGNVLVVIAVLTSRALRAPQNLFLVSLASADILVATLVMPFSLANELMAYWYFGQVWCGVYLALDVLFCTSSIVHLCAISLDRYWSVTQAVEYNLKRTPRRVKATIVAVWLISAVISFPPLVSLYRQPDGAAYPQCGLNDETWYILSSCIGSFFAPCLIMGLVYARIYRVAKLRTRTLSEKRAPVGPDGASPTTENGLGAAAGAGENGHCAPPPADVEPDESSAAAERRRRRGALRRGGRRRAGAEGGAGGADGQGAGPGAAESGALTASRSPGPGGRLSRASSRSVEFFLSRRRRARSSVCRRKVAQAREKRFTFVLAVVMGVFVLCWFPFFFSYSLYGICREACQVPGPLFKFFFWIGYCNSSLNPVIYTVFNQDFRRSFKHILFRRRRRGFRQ

[8] = target: T5, 5-hydroxytryptamine receptor 1A (Homo sapiens, UniProt P08908); type: functional, cell-based
T5 sequence (P08908 whole entry): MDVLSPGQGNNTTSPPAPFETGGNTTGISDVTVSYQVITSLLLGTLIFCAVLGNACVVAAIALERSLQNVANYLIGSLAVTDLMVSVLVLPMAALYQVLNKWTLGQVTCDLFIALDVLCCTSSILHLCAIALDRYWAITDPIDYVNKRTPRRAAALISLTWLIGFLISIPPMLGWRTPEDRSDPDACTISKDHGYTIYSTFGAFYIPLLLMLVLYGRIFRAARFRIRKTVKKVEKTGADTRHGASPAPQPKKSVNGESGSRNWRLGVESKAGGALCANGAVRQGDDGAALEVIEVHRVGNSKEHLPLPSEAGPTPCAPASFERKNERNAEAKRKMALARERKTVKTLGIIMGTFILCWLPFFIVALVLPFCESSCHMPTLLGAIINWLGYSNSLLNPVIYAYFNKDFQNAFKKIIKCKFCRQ
Further: assay procedure not described here.

Chain of Gamma-aminobutyric acid receptor subunit alpha-1 (P62813 whole entry): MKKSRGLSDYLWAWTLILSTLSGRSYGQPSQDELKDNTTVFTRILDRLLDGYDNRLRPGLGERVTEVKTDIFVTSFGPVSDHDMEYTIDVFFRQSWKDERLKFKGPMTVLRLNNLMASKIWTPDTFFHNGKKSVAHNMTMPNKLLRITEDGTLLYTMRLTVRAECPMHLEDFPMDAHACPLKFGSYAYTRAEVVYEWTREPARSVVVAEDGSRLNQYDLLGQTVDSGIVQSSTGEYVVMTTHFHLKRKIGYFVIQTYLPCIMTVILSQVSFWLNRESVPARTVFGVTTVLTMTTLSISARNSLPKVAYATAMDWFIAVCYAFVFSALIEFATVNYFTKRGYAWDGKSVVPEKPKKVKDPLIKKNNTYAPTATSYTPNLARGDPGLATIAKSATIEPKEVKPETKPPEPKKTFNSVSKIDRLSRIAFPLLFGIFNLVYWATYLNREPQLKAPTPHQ
Chain of Delta-type opioid receptor (P41143 whole entry): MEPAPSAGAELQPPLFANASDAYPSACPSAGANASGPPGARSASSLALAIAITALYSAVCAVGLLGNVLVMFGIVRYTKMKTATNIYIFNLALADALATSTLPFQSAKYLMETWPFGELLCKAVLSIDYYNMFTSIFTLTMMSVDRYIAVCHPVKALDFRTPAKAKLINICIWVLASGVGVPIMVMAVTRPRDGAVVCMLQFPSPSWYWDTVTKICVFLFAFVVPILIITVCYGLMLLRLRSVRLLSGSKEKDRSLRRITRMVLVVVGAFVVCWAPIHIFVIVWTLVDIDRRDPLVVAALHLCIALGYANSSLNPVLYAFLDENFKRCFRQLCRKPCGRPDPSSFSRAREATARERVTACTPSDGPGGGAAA
Chain of Histamine H2 receptor (P25021 whole entry): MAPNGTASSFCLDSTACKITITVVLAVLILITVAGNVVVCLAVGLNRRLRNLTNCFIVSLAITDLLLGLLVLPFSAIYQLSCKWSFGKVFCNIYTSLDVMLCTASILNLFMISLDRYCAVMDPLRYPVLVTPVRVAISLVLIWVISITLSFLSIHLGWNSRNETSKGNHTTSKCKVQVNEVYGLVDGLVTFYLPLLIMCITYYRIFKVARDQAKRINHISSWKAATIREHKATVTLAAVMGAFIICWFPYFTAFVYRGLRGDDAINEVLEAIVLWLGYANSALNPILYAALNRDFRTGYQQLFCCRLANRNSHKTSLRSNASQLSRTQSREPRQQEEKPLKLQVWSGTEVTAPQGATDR
Chain of Neuronal acetylcholine receptor subunit alpha-4 (P43681 whole entry): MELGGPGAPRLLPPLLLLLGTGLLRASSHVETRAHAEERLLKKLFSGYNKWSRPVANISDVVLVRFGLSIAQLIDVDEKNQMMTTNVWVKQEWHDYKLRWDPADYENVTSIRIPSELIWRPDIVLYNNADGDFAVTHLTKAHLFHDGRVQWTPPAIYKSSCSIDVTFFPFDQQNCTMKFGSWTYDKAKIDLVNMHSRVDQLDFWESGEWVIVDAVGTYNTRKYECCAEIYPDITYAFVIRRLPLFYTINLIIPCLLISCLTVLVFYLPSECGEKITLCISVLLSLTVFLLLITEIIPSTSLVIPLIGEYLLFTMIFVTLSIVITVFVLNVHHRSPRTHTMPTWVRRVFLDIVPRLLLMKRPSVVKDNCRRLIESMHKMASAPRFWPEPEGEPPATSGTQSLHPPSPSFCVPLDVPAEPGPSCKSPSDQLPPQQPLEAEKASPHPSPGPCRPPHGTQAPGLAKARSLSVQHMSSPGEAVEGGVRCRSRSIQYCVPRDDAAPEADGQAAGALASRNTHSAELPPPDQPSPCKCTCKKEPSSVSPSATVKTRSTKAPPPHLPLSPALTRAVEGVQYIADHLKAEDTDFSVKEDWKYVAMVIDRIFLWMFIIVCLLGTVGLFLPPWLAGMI
Chain of Melanocortin receptor 3 (P41968 whole entry): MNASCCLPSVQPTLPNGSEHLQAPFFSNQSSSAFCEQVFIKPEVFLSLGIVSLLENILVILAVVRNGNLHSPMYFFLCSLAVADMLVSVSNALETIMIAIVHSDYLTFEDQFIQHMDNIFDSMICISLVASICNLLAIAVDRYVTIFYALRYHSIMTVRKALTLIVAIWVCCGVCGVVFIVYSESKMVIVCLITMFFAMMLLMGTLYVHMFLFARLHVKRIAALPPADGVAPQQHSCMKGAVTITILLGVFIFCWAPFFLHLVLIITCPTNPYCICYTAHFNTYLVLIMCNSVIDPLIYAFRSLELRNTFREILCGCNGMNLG
Chain of Adenosine receptor A2a (P29274 whole entry): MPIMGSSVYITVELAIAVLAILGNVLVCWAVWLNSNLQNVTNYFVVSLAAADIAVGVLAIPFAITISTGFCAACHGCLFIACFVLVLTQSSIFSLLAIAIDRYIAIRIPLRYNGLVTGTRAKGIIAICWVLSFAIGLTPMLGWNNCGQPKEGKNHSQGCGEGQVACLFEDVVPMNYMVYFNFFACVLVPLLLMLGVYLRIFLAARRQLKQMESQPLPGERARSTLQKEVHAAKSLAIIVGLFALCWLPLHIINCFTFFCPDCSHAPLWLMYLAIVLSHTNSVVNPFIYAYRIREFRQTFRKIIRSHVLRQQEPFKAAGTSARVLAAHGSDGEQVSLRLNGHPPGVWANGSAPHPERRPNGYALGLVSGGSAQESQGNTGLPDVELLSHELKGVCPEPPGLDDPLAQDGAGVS
Chain of D(3) dopamine receptor (P35462 whole entry): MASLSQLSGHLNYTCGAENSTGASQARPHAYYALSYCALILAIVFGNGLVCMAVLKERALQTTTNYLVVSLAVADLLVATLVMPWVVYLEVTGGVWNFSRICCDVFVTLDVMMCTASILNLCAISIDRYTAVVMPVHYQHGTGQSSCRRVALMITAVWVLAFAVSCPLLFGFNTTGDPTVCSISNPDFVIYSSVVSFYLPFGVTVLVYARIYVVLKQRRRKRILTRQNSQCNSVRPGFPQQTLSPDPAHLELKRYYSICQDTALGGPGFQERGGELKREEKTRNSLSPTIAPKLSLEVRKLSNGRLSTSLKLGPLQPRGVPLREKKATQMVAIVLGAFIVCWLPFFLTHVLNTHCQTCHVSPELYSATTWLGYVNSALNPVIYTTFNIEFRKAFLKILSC
Chain of Cannabinoid receptor 1 (P21554 whole entry): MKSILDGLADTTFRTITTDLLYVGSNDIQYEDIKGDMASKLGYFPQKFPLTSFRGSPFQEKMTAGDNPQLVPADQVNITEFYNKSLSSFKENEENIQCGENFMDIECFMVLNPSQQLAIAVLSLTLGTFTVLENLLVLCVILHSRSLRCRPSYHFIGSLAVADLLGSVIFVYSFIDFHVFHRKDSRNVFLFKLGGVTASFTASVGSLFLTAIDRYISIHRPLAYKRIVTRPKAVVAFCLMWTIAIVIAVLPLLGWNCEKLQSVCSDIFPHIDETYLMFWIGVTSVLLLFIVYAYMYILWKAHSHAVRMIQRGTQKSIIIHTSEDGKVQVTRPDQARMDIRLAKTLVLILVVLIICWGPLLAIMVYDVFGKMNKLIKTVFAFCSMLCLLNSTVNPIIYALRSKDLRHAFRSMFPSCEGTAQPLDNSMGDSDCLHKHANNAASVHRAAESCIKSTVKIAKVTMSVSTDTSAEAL

SMILES | AC50 (Melanocortin receptor 3) [µM] | AC50 (Adenosine receptor A2a) [µM] | AC50 [1] [µM] | AC50 (Histamine H2 receptor) [µM] | AC50 (Cannabinoid receptor 1) [µM] | AC50 [2] [µM] | AC50 [3] [µM] | AC50 (D(3) dopamine receptor) [µM] | AC50 [4] [µM] | AC50 [5] [µM] | AC50 [6] [µM] | AC50 [7] [µM] | AC50 [8] [µM]
Brc1c(NC2=NCCN2)ccc2nccnc12 [BRIMONIDINE] | > 30 | > 30 | > 30 | > 30 | > 30 | > 30 | > 30 | > 30 | > 30 | > 30 | > 30 |  | 
NC(=O)CN1CC(O)CC1=O (stereo unspecified) [OXIRACETAM] | > 30 | > 30 | > 30 | > 30 | > 30 | > 30 | > 30 | > 30 | > 30 | > 30 | > 30 | > 30 | > 30
C[C@H]1COc2c(C3(N)CC3)c(F)cc3c(=O)c(C(=O)O)cn1c23 [PAZUFLOXACIN] | > 10 | > 10 | > 10 | > 10 |  | > 30 | > 10 | > 30 | > 10 | > 10 | > 10 | > 10 | > 10
NC(=O)OCC(COC(N)=O)c1ccccc1 [FELBAMATE] | > 10 | > 10 | > 10 | > 10 |  | > 30 | > 10 | > 10 | > 10 | > 10 | > 10 | > 10 | > 10
Clc1ccccc1C(c1ccccc1)(c1ccccc1)n1ccnc1 [CLOTRIMAZOLE] |  |  | > 10 | > 10 | > 30 | > 30 | > 10 | > 30 | > 10 | > 10 |  |  | > 10
CC(C)(C)NCC(O)COc1cccc2c1CCC(=O)N2 (stereo unspecified) [CARTEOLOL] | > 10 | > 10 | > 10 | > 10 | > 30 | > 30 | > 10 | > 30 | > 10 | > 10 | > 10 | > 10 | 8.8
CC1(C)CCC(CN2CCN(c3ccc(C(=O)NS(=O)(=O)c4ccc(NCC5CCOCC5)c([N+](=O)[O-])c4)c(Oc4cnc5[nH]ccc5c4)c3)CC2)=C(c2ccc(Cl)cc2)C1 [VENETOCLAX] | > 30 |  | > 30 |  |  | > 30 |  | > 30 |  |  |  | 17 | 
O=C1C(O)=C([C@H]2CC[C@H](c3ccc(Cl)cc3)CC2)C(=O)c2ccccc21 [ATOVAQUONE] | > 30 | > 30 | > 30 | > 30 |  | > 30 | > 30 | > 30 | > 30 | > 30 | > 30 | > 30 | > 30
Cc1nnc2n1-c1ccc(Cl)cc1C(c1ccccc1Cl)=NC2 [TRIAZOLAM] | > 30 | > 30 | > 10 | > 10 | > 30 | > 30 | > 10 | > 30 | > 10 | > 10 | > 30 | > 10 | > 10
CC/C(=C(\c1ccccc1)c1ccc(OCCN(C)C)cc1)c1ccccc1 [TAMOXIFEN] |  |  | > 10 | > 10 |  | > 30 | > 10 | 2.9 | > 10 | > 30 |  | > 10 | > 10
CC(CC1c2ccccc2CCc2ccccc21)CN(C)C (stereo unspecified) [BUTRIPTYLINE] |  |  | > 30 | > 30 | > 30 |  | > 30 | 1.7 |  |  |  | 6.9 | > 30
COc1cccc(C2(O)CCCCC2CN(C)C)c1 (stereo unspecified) [TRAMADOL] | > 30 | > 30 | > 10 | > 10 | > 30 | > 30 | > 10 | > 10 |  |  | > 30 | > 10 | > 10
COc1ccc2c3c1O[C@H]1[C@@H](O)CC[C@H]4[C@@H](C2)N(C)CC[C@@]341 [DIHYDROCODEINE] |  |  | > 30 | > 30 | > 30 | > 30 | > 30 | > 30 |  |  |  | > 30 | > 30
Cc1cc(C(C)(C)C)c(O)c(C)c1CC1=NCCN1 [OXYMETAZOLINE] | > 30 |  | > 30 |  | > 30 | > 30 |  | 20.1 | > 30 |  |  |  | 
Cc1c(OCC(F)(F)F)ccnc1C[S+]([O-])c1nc2ccccc2[nH]1 (stereo unspecified) [LANSOPRAZOLE] | > 30 | > 30 | > 10 | > 10 | > 30 | 8.3 | > 10 | > 10 | > 10 |  | 24.5 | > 10 | > 10
COc1ccc(CCNCC(O)COc2cccc(C)c2)cc1OC (stereo unspecified) [BEVANTOLOL] | > 10 | > 10 | > 10 | > 30 |  | > 30 | > 10 | > 30 | > 10 | > 10 | > 10 | 9.4 | 
Fc1ccc(C(c2ccccc2)(c2ccccc2F)n2ccnc2)cc1 (stereo unspecified) [FLUTRIMAZOLE] | > 30 | > 30 | > 30 | > 30 | > 30 | > 30 | > 30 | > 30 | > 30 | > 30 | > 30 | > 30 | 
